Columns and labels:
[1] = system: Rabbit venous thrombus models; assay: In vivo antithrombotic effect evaluation test using rabbit (arteriovenous shunt); settings: prompt i.v. + continuous i.v.
Protocol: Rabbit venous thrombus models were prepared by a modification of the report of Wong et al. (Wong P C. et al., J. Pharmacol. Exp. Ther. 292: 351-357 (2000)). Male rabbits (JW, 2 to 4 kg) were anesthetized by the inhalation of isoflurane (ISOFLU®, manufactured by DS Pharma Animal Health Co., Ltd.) (introduced anesthesia: 4%, continuous anesthesia: 1.5 to 2.5%). A tracheostomy tube was inserted to each rabbit, which was then ventilated using a respirator. For the intravenous administration of a test drug and blood collection, catheters were inserted to the right femoral vein and the right femoral artery, respectively. An arteriovenous shunt filled with saline was inserted to the carotid artery and the jugular vein. The arteriovenous shunt was prepared by connecting Atom extension tubes (4Fr) having lengths of 15 cm and 13 cm to the artery side and the vein side, respectively, of a polyethylene tube (length: 60 cm, outside diameter: 11.1 mm, inside diameter: 7.9 mm). Also, 4-0 silk thread having a length of 5 cm was indwelled in the arteriovenous shunt. Blood was sent for 30 minutes from the carotid artery to the jugular vein via the arteriovenous shunt. The shunt was removed, and the weight of the silk thread covered with thrombus was measured. The weight of the silk thread measured before the experiment was subtracted from the measured weight, and the obtained value was used as a wet thrombus weight. One hour before the open of the arteriovenous shunt, the test drug or a vehicle was promptly intravenously administered (0.67 mL/kg) and then continuously intravenously administered (1 mL/kg/hr). The continuous injection was continued throughout the experiment. Further, an existing anticoagulant dabigatran (antithrombin drug) and rivaroxaban (FXa inhibitor) were tested as control drugs.
In order to measure aPTT of blood samples as an index for the intrinsic coagulation pathway, blood was collected before administration and immediately before cessation of blood flow, and plasma was prepared using 3.2% sodium citrate. After incubation at 37° C. for 6 minutes, an STA reagent Cephascreen (for aPTT assay; manufactured by Roche Diagnostics K.K.) was added in an amount equal thereto, and the mixture was further incubated for 4 minutes. STA calcium chloride (manufactured by Roche Diagnostics K.K.) was added in an amount equal thereto, and the time required for coagulation was measured.
In order to measure prothrombin time (PT) of blood samples as an index for the extrinsic coagulation pathway, blood was collected before administration and immediately before cessation of blood flow, and plasma was prepared using 3.2% sodium citrate. After incubation at 37° C. for 10 minutes, Neoplastin Plus (for PT assay; manufactured by Roche Diagnostics K.K.) was added in a double amount, and the time required for coagulation was measured.

[2] = Dog PK test (Test Example 9); format: in vivo; settings: plasma, 1 mg/kg, male beagle, intravenous, 1 mg/2 mL/kg, read-out: AUC from 0 hours to 24 hours (compound of Reference Example 2-6 in plasma)
Protocol: The compound of Reference Example 2-6 was dissolved in a mixed solution of saline/0.1 N HCl=9/1, and this solution was intravenously administered at a dose of 1 mg/2 mL/kg to a male beagle. Blood collection was carried out 0.25, 0.5, 1, 2, 4, 6, and 24 hours after administration. 2 mL of blood was collected using a syringe packed with 20 μL of Novo-Heparin Injection, transferred to a centrifugal tube cooled in ice, and centrifuged at 3000 rpm at 4° C. for 10 minutes to prepare plasma. 200 μL of the prepared plasma was added to a tube containing 600 μL of acetonitrile and mixed for approximately 10 seconds using a vortex mixer. Then, the concentration of the compound of Reference Example 2-6 was measured.
The compound of Example 7 was suspended in a 0.5% aqueous methylcellulose solution, and this suspension was orally administered at a dose of 5 mg/5 mL/kg to a male beagle fasted for 16 hours. Blood collection was carried out 0.5, 1, 2, 4, 6, and 24 hours after administration. 2 mL of blood was collected using a syringe packed with 20 μL of Novo-Heparin Injection, transferred to a centrifugal tube cooled in ice, and centrifuged at 3000 rpm at 4° C. for 10 minutes to prepare plasma. […] Then, the concentration of the compound of Reference Example 2-6 was measured.

Human FIXαβ = molecular target: T1, Human FIXαβ (Homo sapiens, UniProt P00740); assay: Enzyme selectivity evaluation test: FIXa; format: biochemical
T1 construct: 3) Factor IXa (FIXa); purchased Enzyme Research Laboratories
Protocol: SPECTROZYME® FIXa (D-Leu-Ph′Gly-Arg-pNA.2AcOH) (manufactured by American Diagnostica Inc.) was added as the substrate at a final concentration of 800 μmol/L. After progression of the reaction, the absorbance was measured at OD 405 nm. Change in OD in case of no addition of the test compound was defined as 100%, and the concentration at which a rise in OD value was reduced by 50% was calculated as […]

Human Trypsin = assay: Enzyme selectivity evaluation test: trypsin; format: biochemical
Protocol: S-2222 (Bz-Ile-Glu(γ-OR)-Gly-Arg-pNA.HCl (SEQ ID NO: 1), R═H (50%) and R═CH3 (50%)) was added as the substrate at a final concentration of 150 μmol/L. After progression of the reaction, the absorbance was measured at OD 405 nm.

Human plasmin = molecular target: T2, Human plasmin (Homo sapiens, UniProt P00747); assay: Enzyme selectivity evaluation test: plasmin; format: biochemical
T2 construct: Human plasmin (manufactured by Sekisui Diagnostics, LLC); purchased Sekisui Diagnostics, LLC
Protocol: S-2288 (H-D-Ile-Pro-Arg-pNA.2HCl) was added as the substrate at a final concentration of 300 μmol/L. After progression of the reaction, the absorbance was measured at OD 405 nm.

[3] = dose 0.15 + 0.225 mg/kg + mg/kg/h
[4] = dose 0.5 + 0.75 mg/kg + mg/kg/h
[5] = dose 1.5 + 2.25 mg/kg + mg/kg/h

T1 sequence (P00740 227-461 limits assumed): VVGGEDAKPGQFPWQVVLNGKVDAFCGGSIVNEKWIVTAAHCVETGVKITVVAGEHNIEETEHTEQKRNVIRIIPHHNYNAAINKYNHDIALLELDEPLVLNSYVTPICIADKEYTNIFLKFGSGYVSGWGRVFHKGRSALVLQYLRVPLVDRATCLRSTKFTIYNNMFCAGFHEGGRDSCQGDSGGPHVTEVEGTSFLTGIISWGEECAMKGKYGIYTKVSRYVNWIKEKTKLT
T1 sequence (P00740 47-191 partner limits assumed): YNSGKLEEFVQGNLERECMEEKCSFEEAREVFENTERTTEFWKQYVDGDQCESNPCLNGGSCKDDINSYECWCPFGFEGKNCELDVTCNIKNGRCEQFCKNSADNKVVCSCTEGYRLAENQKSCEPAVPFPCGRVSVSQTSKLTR
T2 sequence (P00747 581-810 limits assumed): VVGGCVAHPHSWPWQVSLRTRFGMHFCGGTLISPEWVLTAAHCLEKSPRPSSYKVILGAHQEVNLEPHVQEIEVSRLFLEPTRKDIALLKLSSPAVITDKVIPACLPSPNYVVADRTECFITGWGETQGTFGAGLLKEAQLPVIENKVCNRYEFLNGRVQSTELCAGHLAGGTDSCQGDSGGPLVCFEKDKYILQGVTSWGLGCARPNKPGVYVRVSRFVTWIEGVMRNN
T2 sequence (P00747 97-580 partner limits assumed): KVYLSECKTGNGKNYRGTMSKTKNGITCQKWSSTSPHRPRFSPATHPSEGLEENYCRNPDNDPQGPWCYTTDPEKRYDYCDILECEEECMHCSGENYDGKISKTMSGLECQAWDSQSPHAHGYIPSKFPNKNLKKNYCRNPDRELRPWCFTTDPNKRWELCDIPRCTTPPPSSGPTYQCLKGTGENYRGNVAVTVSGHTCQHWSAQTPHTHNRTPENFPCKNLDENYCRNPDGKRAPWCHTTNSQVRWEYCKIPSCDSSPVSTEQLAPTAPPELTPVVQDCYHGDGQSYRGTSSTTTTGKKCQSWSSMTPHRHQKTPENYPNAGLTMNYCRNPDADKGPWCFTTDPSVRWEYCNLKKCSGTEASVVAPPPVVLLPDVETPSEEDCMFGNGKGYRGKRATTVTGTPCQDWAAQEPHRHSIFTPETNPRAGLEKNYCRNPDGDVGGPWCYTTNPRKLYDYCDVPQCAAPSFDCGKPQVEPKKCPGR

Cl.N[C@H](CF)[C@H]1CC[C@H](C(=O)N2CC[C@@H](C3CCCCC3)[C@H]2C(=O)Nc2ccc3[nH]c(C(=O)O)cc3c2)CC1 [Reference Example 2-6, 5-{[(3S)-1-({trans-4-[(1S)-1-Amino-2-fluoroethyl]cyclohexyl}carbonyl)-3-cyclohexyl-L-prolyl]amino}-1H-indole-2-carboxylic acid hydrochloride]
PT (ratio) [1, 3]: 1.01 ± 0.02 ratio | Thrombus weight [1, 3]: 81 ± 12 mg | aPTT (ratio) [1, 3]: 1.24 ± 0.08 ratio | PT (ratio) [1, 4]: 1.00 ± 0.02 ratio | Thrombus weight [1, 4]: 66 ± 22 mg | aPTT (ratio) [1, 4]: 1.59 ± 0.15 ratio | PT (ratio) [1, 5]: 1.01 ± 0.00 ratio | Thrombus weight [1, 5]: 36 ± 6 mg | aPTT (ratio) [1, 5]: 1.84 ± 0.10 ratio | PT (ratio) ([1]; dose 5.0 + 7.5 mg/kg + mg/kg/h): 1.02 ± 0.02 ratio | Thrombus weight ([1]; dose 5.0 + 7.5 mg/kg + mg/kg/h): 16 ± 6 mg | aPTT (ratio) ([1]; dose 5.0 + 7.5 mg/kg + mg/kg/h): 2.35 ± 0.09 ratio | AUC [2]: 4420 ng·h/mL | IC50 (Human FIXαβ): > 10 µM | IC50 (Human Trypsin): > 10 µM | IC50 (Human plasmin): > 10 µM

Source: patent US9718840B2, “Condensed 5-oxazolidinone derivative” (SUMITOMO DAINIPPON PHARMA CO., LTD., priority 2014, dated 2017)
